# Experimental data from patent US20230181569A1, “COMPOSITIONS AND METHODS TO TREAT POLYCYSTIC KIDNEY DISEASE” (Board of Supervisors of Louisiana State University and …, priority 2020, published 2023).
# Like-named read-outs stand apart in the source and are kept apart here.
# Tests used:
# Sprague-Dawley rats = conditions: cited from earlier work; for urine output: Sprague-Dawley rats; for sedation and hyperphagia: rat, in vivo
# Pkd1 RC/RC mice = experiment: Chronic daily oral gavage of KOA in Pkd1 RC/RC mice (Example 1, Studies 1 and 2); assay type: in vivo; conditions: daily oral gavage 4 or 8 weeks; for fibrosis area in the kidney / serum creatinine and blood urea levels / cyst size and numbers: Pkd1 RC/RC mice; for cyst size and numbers: 5 mg/kg JT-09 or 100 µg/kg nalfurafine; for GFR: mice with PKD
# Procedure: Pkd1 RC/RC mice were used as the polycystic kidney disease model. 12 weeks old mice were given a KOA treatment (JT-09 or nalfurafine) or a vehicle at a dose of 5 mg/kg for JT-09 or 100 µg/kg for nalfurafine daily for 4 or 8 weeks.
# Group 1: Pkd1 RC/RC mice + treatment (JT09 or nalfurafine) oral gavage (5 mg/kg for JT-09 or 100 µg/kg for nalfurafine) daily. n=24
# Group 2: Pkd1 RC/RC mice + vehicle oral gavage daily. n=24
# At 16 weeks old, 12 mice from both groups 1 and 2 were selected. These mice were each placed in a metabolic cage to collect urine for three 24-hour periods (a total of 72 hours). Each mouse was placed in a separate metabolic cage, as opposed to all mice in a single metabolic cage. Daily water intake for each mouse is also recorded. Mice were then deep anesthetized, and blood was be taken from their artery. Mice were then sacrificed. Both kidneys were perfused with PBS and fixed in neutral buffered formalin. Kidneys were processed for paraffin embedding and sectioning. H&E and picrosirus stain were performed on each section. Cystic index including cysts size and number were evaluated by a pathologist. Fibrosis was evaluated by the pathologist as well; in addition, a fibrotic score was given. The serum creatinine and blood urea level in the blood was then measured.
# At 20 weeks old, the other set of 12 mice in both groups was then sacrificed and the same experiment was be performed as described herein.
# At 16 weeks old, 12 mice from each group were anesthetized. The right jugular vein was catheterized for inulin infusion, and the bladder was catheterized for urine collection. GFR was evaluated based on the excretion rate of FITC-sinistrin.
# At 20 weeks old, the same GFR measure was be repeated on the other 12 mice from each group.
# [1] = in vivo; cited from earlier work
# WT mice = experiment: Oral gavage of nalfurafine, urine output in wild type mice; assay type: in vivo
# Procedure: The dose volume is 20 ml/kg.
# Polycystic kidney disease (PKD) affects one person in every 400 to 1000 people in the U.S., which is associated with substantial mortality. […] There is no cure for PKD, and currently only one treatment is available to delay progression: tolvaptan, a vasopressin V2 receptor antagonist. This drug is expensive and indicated only in some patients who are at high risk for progression. The efficacy of tolvaptan proves that an active vasopressin pathway plays a critical role in this disease progression. However, the drug carries risk of severe hepatic toxicity, and patients treated with tolvaptan are suffering serious side effects, such as severe thirst and polyuria due to inhibition of V2 receptor in the distal nephrons. […] In addition to their inhibitory effect on vasopressin secretion and subsequent diuretic effect, KOAs can produce an anti-inflammatory micro-environment at the cellular level, which protects cardiac tissue from fibrosis.
# Pkd1^RC/RC mice = experiment: Acute oral gavage of nalfurafine, urine output in PKD mice; assay type: in vivo
# Procedure: Volume expansion, give mice saline at the dose of 20 ml/kg. (b) dose responsive curve of nalfurafine in Pkd1^RC/RC mice. Y axis, accumulative urine output of 5 hours after dosing. n=7-10 in each group.
# ADPKD patients have an elevated level of vasopressin. Based on this observation, tolvaptan was discovered and later approved by its mechanism of action of blocking V2 receptors on the distal tubules. However, this also leads to the side effect of polyuria and severe thirst. […] Therefore, the long-term effects by nalfurafine on urine output can be limited unlike tolvaptan.
# Therefore, we will give PKD mice nalfurafine daily at the maximum responsive dose 240 ug/kg/day for chronic studies in both Aim 1 and Aim 2 to obtain the greatest benefits.
# patients [2] = conditions: cited from earlier work
# affected skin = conditions: atopic dermatitis and pruritus; cited from earlier work
# kappa receptors = kappa receptors (Homo sapiens, UniProt P41145); conditions: cited from earlier work
# Sprague Dawley rats = experiment: Stability of drug dissolved in drinking water, read out as urine output in rats; assay type: in vivo
# Procedure: Day 1, the fresh made drug was given to rats. Day 4, the drug made on day 1 was given to the same rats. Veh, vehicle; Nal, nalfurafine. n=3 for each group.
# Route of administration: Drug will be given orally in drinking water. We have performed a study to test the stability of the drug. […] We then left this water bottle at room temperature for three days, and we then gave this water to the same rats again. […] Therefore, the drug is stable for 3 days when it is dissolved in water at room temperature. We will make fresh nalfurafine in drinking water every 3 days in the chronic studies in both Aim 1 and Aim 2. We will give another group of mice the standard care of tolvaptan to serve as comparison of the treatment.
# [3] = cited from earlier work
# [4] = cited from earlier work; remark: listed apart in the source
# patients [5] = conditions: patients treated with tolvaptan; cited from earlier work
# patients [6] = conditions: human trials; cited from earlier work
# conscious rats = conditions: cited from earlier work
# [7] = i.c.v. or i.v. infusion, conscious rats
# Chain of kappa receptors (P41145 whole entry): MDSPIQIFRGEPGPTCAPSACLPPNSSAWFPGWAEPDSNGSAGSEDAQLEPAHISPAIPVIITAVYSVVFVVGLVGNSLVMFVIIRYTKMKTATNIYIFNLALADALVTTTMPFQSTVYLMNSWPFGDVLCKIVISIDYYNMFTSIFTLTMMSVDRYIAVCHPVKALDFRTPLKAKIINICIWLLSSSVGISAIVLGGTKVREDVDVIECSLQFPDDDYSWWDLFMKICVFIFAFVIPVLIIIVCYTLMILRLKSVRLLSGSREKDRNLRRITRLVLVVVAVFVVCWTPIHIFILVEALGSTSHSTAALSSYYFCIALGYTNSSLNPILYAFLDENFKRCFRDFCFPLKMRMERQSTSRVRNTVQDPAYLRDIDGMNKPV
compound,measurement,setting,value
CC(C)C1CCC(N2CCC(N3C(=O)C(=O)c4ccccc43)CC2)CC1 (centres unmarked) [AT-090],urine output,Sprague-Dawley rats,increase urine output
same,sedation and hyperphagia,Sprague-Dawley rats,sedation and hyperphagia
CC(C)C1CCC(N2CCC(N3C(=O)/C(=N\O)c4ccccc43)CC2)CC1 (centres unmarked) [AT-127],urine output,Sprague-Dawley rats,increase urine output
same,sedation and hyperphagia,Sprague-Dawley rats,sedation and hyperphagia
CC(C)C1CCC(N2CCC(n3c(CO)c(CO)c4ccccc43)CC2)CC1 (centres unmarked) [AT-390],urine output,Sprague-Dawley rats,increase urine output
CNC(=O)CC1C(=O)N(C2CCN(C3CCC(C(C)C)CC3)CC2)c2ccccc21 (centres unmarked) [AT-403],urine output,Sprague-Dawley rats,increase urine output
same,sedation and hyperphagia,Sprague-Dawley rats,sedation and hyperphagia
CCCC[C@@H](NC(=O)[C@@H](Cc1ccccc1)NC(=O)[C@H](N)Cc1ccccc1)C(=O)N[C@H](CCCCN(C)C)C(=O)NCc1ccncc1 [JT09],fibrosis area in the kidney,Pkd1 RC/RC mice,reduce fibrosis area in the kidney
same,serum creatinine and blood urea levels,Pkd1 RC/RC mice,decrease serum creatinine and blood urea levels
same,cyst size and numbers,Pkd1 RC/RC mice,decrease cyst size and numbers
same,GFR,Pkd1 RC/RC mice,improve GFR
same,serum creatinine levels,[1],reduces serum creatinine levels
same,urine output,[1],increases urine output
CN(C(=O)/C=C/c1ccoc1)[C@@H]1CC[C@@]2(O)[C@H]3Cc4ccc(O)c5c4[C@@]2(CCN3CC2CC2)[C@H]1O5 [nalfurafine],behavioral or adverse effects,"WT mice; mouse, in vivo",does not produce any apparent behavioral or adverse effects
same,urine output,"WT mice; oral gavage, wild type mice",marked increase in urine output
same,fibrosis area in the kidney,Pkd1 RC/RC mice,reduce fibrosis area in the kidney
same,serum creatinine and blood urea levels,Pkd1 RC/RC mice,decrease serum creatinine and blood urea levels
same,cyst size and numbers,Pkd1 RC/RC mice,decrease cyst size and numbers
same,GFR,Pkd1 RC/RC mice,improve GFR
same,dose dependence of the increase in urine output,"Pkd1^RC/RC mice; Pkd1^RC/RC mice, accumulative urine output of 5 hours after dosing",dose dependent
same,dose with the greatest increase in 5-hour urine output,"Pkd1^RC/RC mice; Pkd1^RC/RC mice, doses of 100, 130, 180, 240 and 320 ug/kg",0.24 mg/kg
same,highest effective dose in acute study,Pkd1^RC/RC mice; acute study,0.24 mg/kg
same,urine output compared with vehicle treatment,"Pkd1^RC/RC mice; oral administration, mice with PKD, within the 3 hours after dosing (FIG. 24a: 240 ug/kg)",significant increase in urine output
same,polyuria as a side effect,patients [2]; clinical trials of nalfurafine,none of the clinical trials of nalfurafine have reported polyuria
same,"CNS-mediated side effects of traditional opioids (nausea/vomiting, sedation, respiratory depression, abuse potential, addiction, euphoria)","patients [2]; human, in vivo",does not produce the CNS-mediated side effects
same,extreme thirst and polyuria,patients [2]; one year post-marketing surveillance study,does not cause extreme thirst nor polyuria
same,"insomnia (worst side effect), share of patients","patients [2]; post marketing analysis of 3,762 patients",approximately 3%
same,infiltration of CD4+ and CD8+ T cells,affected skin,reduced infiltration of CD4+ T cells and CD8+ T cells in the affected skin
same,selectivity for kappa receptors,kappa receptors,highly selective for kappa receptors
same,diuresis after fresh drug dissolved in water,"Sprague Dawley rats; rats, first day, 30 ug/kg single dose",produced diuresis
same,"magnitude of increase in urine output, day 4 versus day 1","Sprague Dawley rats; same rats, drug solution kept at room temperature for three days",the same on day 4 as it was on day 1
same,stability when dissolved in water at room temperature,"Sprague Dawley rats; water, room temperature",3 days
same,half life,[3]; healthy volunteers,8 h
same,half life,[3]; hemodialysis patients,10 to 15 h
Cc1ccccc1C(=O)Nc1ccc(C(=O)N2CCCC(O)c3cc(Cl)ccc32)c(C)c1 (centres unmarked) [tolvaptan],water solubility,[4],poor water solubility
same,undesirable side effects,patients [5],"severe thirst, polyuria and hepatic toxicity"
"Ac—Arg—Tyr—Tyr—Arg—Trp—Lys—Lys—Lys—Lys—Lys—Lys—Lys—NH2 (Ac-RYYRWKKKKKKK-NH2) [ZP120, peptide NOP receptor partial agonist]",blood pressure,patients [6],efficacious in lowering blood pressure
"nociceptin (FGGFTGARKSARKLANQ; Nociceptin; UniProt Q13519 130-146, looked up) [17 amino acid peptide, classical ligand of the nociceptin opioid peptide receptor]",circulating levels of vasopressin,conscious rats; administered centrally,reduces circulating levels of vasopressin
same,"blood pressure, heart rate and peripheral sympathetic nerve activity",conscious rats; centrally (i.c.v.) or at high doses peripherally (i.v. bolus or infusion),"decreases blood pressure, heart rate and peripheral sympathetic nerve activity"
same,urinary sodium excretion,conscious rats; [7],decrease in urinary sodium excretion
same,urine flow rate,conscious rats; [7],marked increase in urine flow rate
